Laboratory results published in article PMC5218480 (PLoS ONE, 2017).

System: MV-4-11 cells
Test: Gene expression microarray analysis (Affymetrix PrimeView) and GSEA
Type: cell-based, human
Set-up: RFU PODN (11730768_x_at) / Fold change /veh PODN (11730768_x_at) / RFU LINC00158 (11744669_a_at) / Fold change /veh LINC00158 (11744669_a_at) / RFU DUSP10 (11751237_a_at) / Fold change /veh DUSP10 (11751237_a_at) / RFU ID3 (11757404_x_at) / Fold change /veh ID3 (11757404_x_at) / RFU PLEKHG5 (11737974_s_at) / Fold change /veh PLEKHG5 (11737974_s_at) / RFU LRRC4B (11730491_at) / Fold change /veh LRRC4B (11730491_at) / RFU GIMAP4 (11747438_a_at) / Fold change /veh GIMAP4 (11747438_a_at) / RFU KRT8 (11758183_x_at) / Fold change /veh KRT8 (11758183_x_at) / RFU CNN1 (11734310_a_at) / Fold change /veh CNN1 (11734310_a_at) / RFU VPS37D (11726825_at) / Fold change /veh VPS37D (11726825_at) / RFU C10orf10 (11716522_x_at) / Fold change /veh C10orf10 (11716522_x_at) / RFU KIR2DL2 /// KIR2DL4 /// KIR2DL5A /// KIR2DL5B /// KIR2DS1 /// KIR2DS2 /// KIR2DS3 /// KIR2DS4 /// KIR3DL3 /// KIR3DL3 /// KIR3DS1 (11738374_at) / Fold change /veh KIR2DL2 /// KIR2DL4 /// KIR2DL5A /// KIR2DL5B /// KIR2DS1 /// KIR2DS2 /// KIR2DS3 /// KIR2DS4 /// KIR3DL3 /// KIR3DL3 /// KIR3DS1 (11738374_at) / RFU C1QL1 (11718748_at) / Fold change /veh C1QL1 (11718748_at) / RFU TMPRSS4 (11747572_a_at) / Fold change /veh TMPRSS4 (11747572_a_at) / RFU HAMP (11756126_x_at) / Fold change /veh HAMP (11756126_x_at) / RFU RNFT2 (11725882_a_at) / Fold change /veh RNFT2 (11725882_a_at) / RFU NR4A2 (11747474_a_at) / Fold change /veh NR4A2 (11747474_a_at) / RFU ABCC12 (11746883_a_at) / Fold change /veh ABCC12 (11746883_a_at) / RFU TMEM136 (11760407_x_at) / Fold change /veh TMEM136 (11760407_x_at) / RFU CLDN22 /// WWC2 (11732394_at) / Fold change /veh CLDN22 /// WWC2 (11732394_at) / RFU HLA-DPB1 (11760878_x_at) / Fold change /veh HLA-DPB1 (11760878_x_at) / RFU SPINT1 (11716480_a_at) / Fold change /veh SPINT1 (11716480_a_at) / RFU GAP43 (11754022_s_at) / Fold change /veh GAP43 (11754022_s_at) / RFU A4GNT (11735810_at) / Fold change /veh A4GNT (11735810_at) / RFU PRB3 (11715151_x_at) / Fold change /veh PRB3 (11715151_x_at) / RFU TUBB4B (11761932_at) / Fold change /veh TUBB4B (11761932_at) / RFU CAPN14 (11732068_a_at) / Fold change /veh CAPN14 (11732068_a_at) / RFU TMCC2 (11721928_a_at) / Fold change /veh TMCC2 (11721928_a_at) / RFU IRGQ (11745062_a_at) / Fold change /veh IRGQ (11745062_a_at) / RFU FAM174B (11720279_a_at) / Fold change /veh FAM174B (11720279_a_at) / RFU TMPRSS4 (11748680_a_at) / Fold change /veh TMPRSS4 (11748680_a_at) / RFU FAM212B (11763350_a_at) / Fold change /veh FAM212B (11763350_a_at) / RFU PLEKHG5 (11743358_a_at) / Fold change /veh PLEKHG5 (11743358_a_at) / RFU ZSCAN30 (11745921_a_at) / Fold change /veh ZSCAN30 (11745921_a_at) / RFU CMKLR1 (11741424_a_at) / Fold change /veh CMKLR1 (11741424_a_at) / RFU LOC101060620 /// MAPK8IP1 (11723275_at) / Fold change /veh LOC101060620 /// MAPK8IP1 (11723275_at) / RFU SPTSSB (11747773_x_at) / Fold change /veh SPTSSB (11747773_x_at) / RFU PRSS12 (11739890_at) / Fold change /veh PRSS12 (11739890_at) / RFU BIN1 (11741810_x_at) / Fold change /veh BIN1 (11741810_x_at) / RFU WNT11 (11732464_a_at) / Fold change /veh WNT11 (11732464_a_at) / RFU C10orf10 (11716521_a_at) / Fold change /veh C10orf10 (11716521_a_at) / RFU C5orf56 (11738089_at) / Fold change /veh C5orf56 (11738089_at) / RFU CYB561 (11721691_x_at) / Fold change /veh CYB561 (11721691_x_at) / RFU ANKRD19P (11752326_a_at) / Fold change /veh ANKRD19P (11752326_a_at) / RFU OR2T12 /// OR2T33 /// OR2T8 (11738714_s_at) / Fold change /veh OR2T12 /// OR2T33 /// OR2T8 (11738714_s_at) / RFU VCAN (11748164_a_at) / Fold change /veh VCAN (11748164_a_at) / RFU JSRP1 (11732532_at) / Fold change /veh JSRP1 (11732532_at) / RFU KRTAP10-11 (11738290_x_at) / Fold change /veh KRTAP10-11 (11738290_x_at) / RFU MYO3A (11730013_a_at) / Fold change /veh MYO3A (11730013_a_at) / RFU EBF3 (11725865_a_at) / Fold change /veh EBF3 (11725865_a_at) / RFU CAMK2N1 (11719241_x_at) / Fold change /veh CAMK2N1 (11719241_x_at) / RFU C5orf56 (11738088_a_at) / Fold change /veh C5orf56 (11738088_a_at) / RFU OLFML3 (11715873_a_at) / Fold change /veh OLFML3 (11715873_a_at) / RFU LOC100653217 /// NTM (11731650_a_at) / Fold change /veh LOC100653217 /// NTM (11731650_a_at) / RFU MAPK11 (11762145_a_at) / Fold change /veh MAPK11 (11762145_a_at) / RFU FIZ1 (11724087_x_at) / Fold change /veh FIZ1 (11724087_x_at) / RFU OASL (11726364_x_at) / Fold change /veh OASL (11726364_x_at) / RFU SOX15 (11748057_x_at) / Fold change /veh SOX15 (11748057_x_at) / RFU CD79A (11719716_a_at) / Fold change /veh CD79A (11719716_a_at) / RFU HIST1H1D (11736915_at) / Fold change /veh HIST1H1D (11736915_at) / RFU CASKIN2 (11723855_a_at) / Fold change /veh CASKIN2 (11723855_a_at) / RFU LOC730098 (11760151_x_at) / Fold change /veh LOC730098 (11760151_x_at) / RFU OR4N2 (11742367_at) / Fold change /veh OR4N2 (11742367_at) / RFU PRRT2 (11749266_a_at) / Fold change /veh PRRT2 (11749266_a_at) / RFU SNX32 (11753110_a_at) / Fold change /veh SNX32 (11753110_a_at) / RFU CDHR5 (11726645_a_at) / Fold change /veh CDHR5 (11726645_a_at) / RFU RCAN1 (11760418_a_at) / Fold change /veh RCAN1 (11760418_a_at) / RFU FAM167A (11723789_a_at) / Fold change /veh FAM167A (11723789_a_at) / RFU FAM26E (11764081_at) / Fold change /veh FAM26E (11764081_at) / RFU ISYNA1 (11749810_s_at) / Fold change /veh ISYNA1 (11749810_s_at) / RFU ACY1 (11761880_at) / Fold change /veh ACY1 (11761880_at) / RFU 11764098_at / Fold change /veh 11764098_at / RFU SAMD14 (11745864_x_at) / Fold change /veh SAMD14 (11745864_x_at) / RFU NPB (11741838_a_at) / Fold change /veh NPB (11741838_a_at) / RFU TMPRSS6 (11731388_a_at) / Fold change /veh TMPRSS6 (11731388_a_at) / RFU KRTAP10-2 (11738614_at) / Fold change /veh KRTAP10-2 (11738614_at) / RFU ARHGAP8 /// PRR5-ARHGAP8 (11727945_x_at) / Fold change /veh ARHGAP8 /// PRR5-ARHGAP8 (11727945_x_at) / RFU KRTAP5-7 /// NADSYN1 (11734609_at) / Fold change /veh KRTAP5-7 /// NADSYN1 (11734609_at) / RFU RASL12 (11751679_a_at) / Fold change /veh RASL12 (11751679_a_at) / RFU CDKN2B (11736163_a_at) / Fold change /veh CDKN2B (11736163_a_at) / RFU PRF1 (11729649_at) / Fold change /veh PRF1 (11729649_at) / RFU, ZNF638 /// ZNF638-IT1 / Fold change vs veh, ZNF638 /// ZNF638-IT1 / RFU, PANK3 / Fold change vs veh, PANK3 / RFU, SH3YL1 / Fold change vs veh, SH3YL1 / RFU, ZEB2 / Fold change vs veh, ZEB2 / RFU, NRIP1 / Fold change vs veh, NRIP1 / RFU, PTTG1IP / Fold change vs veh, PTTG1IP / RFU, CAPN2 / Fold change vs veh, CAPN2 / RFU, MED14 / Fold change vs veh, MED14 / RFU, SNORA58 / Fold change vs veh, SNORA58 / RFU, C1orf63 / Fold change vs veh, C1orf63 / RFU, LRRFIP1 / Fold change vs veh, LRRFIP1 / RFU, NDUFAF7 / Fold change vs veh, NDUFAF7 / RFU, SLC12A2 / Fold change vs veh, SLC12A2 / RFU, IBTK / Fold change vs veh, IBTK / RFU, ESF1 / Fold change vs veh, ESF1 / Fold change vs veh, TMEM50B / RFU, TAOK1 / Fold change vs veh, TAOK1 / RFU, ACBD3 / Fold change vs veh, ACBD3 / RFU, TMA16 / Fold change vs veh, TMA16 / RFU, RWDD3 / Fold change vs veh, RWDD3 / RFU, BCAT1 / Fold change vs veh, BCAT1 / RFU, EDEM3 / Fold change vs veh, EDEM3 / RFU, TMEM33 / Fold change vs veh, TMEM33 / RFU, WDR75 / Fold change vs veh, WDR75 / RFU, AHCTF1 / Fold change vs veh, AHCTF1 / RFU, TFRC / Fold change vs veh, TFRC / RFU, ZDHHC17 / Fold change vs veh, ZDHHC17 / RFU, NOM1 / Fold change vs veh, NOM1 / RFU, ARL8B / Fold change vs veh, ARL8B / RFU, ZBTB11 / Fold change vs veh, ZBTB11 / RFU, TAMM41 / Fold change vs veh, TAMM41 / RFU, KIAA1704 /// LOC100996395 / Fold change vs veh, KIAA1704 /// LOC100996395 / RFU, ING1 / Fold change vs veh, ING1 / RFU, TRMT61B / Fold change vs veh, TRMT61B / RFU, FUBP3 / Fold change vs veh, FUBP3 / RFU, TP53 / Fold change vs veh, TP53 / RFU, TNKS2 / Fold change vs veh, TNKS2 / RFU, ZFP14 / Fold change vs veh, ZFP14 / RFU, ACTR2 / Fold change vs veh, ACTR2 / RFU, PPP3R1 / Fold change vs veh, PPP3R1 / RFU, PIK3R1 / Fold change vs veh, PIK3R1 / RFU, HNRNPA1 / Fold change vs veh, HNRNPA1 / RFU, RNF170 / Fold change vs veh, RNF170 / RFU, ZNF28 / Fold change vs veh, ZNF28 / RFU, RNGTT / Fold change vs veh, RNGTT / RFU, OGT / Fold change vs veh, OGT / RFU, BRD1 / Fold change vs veh, BRD1 / RFU, MARS / Fold change vs veh, MARS / RFU, ZNF655 / Fold change vs veh, ZNF655 / RFU, FAHD1 / Fold change vs veh, FAHD1 / RFU, BDP1 / Fold change vs veh, BDP1 / RFU, LRRCC1 / Fold change vs veh, LRRCC1 / RFU, ARID1A / Fold change vs veh, ARID1A / RFU, ZNF146 / Fold change vs veh, ZNF146 / RFU, ZNF330 / Fold change vs veh, ZNF330 / RFU, GPN3 / Fold change vs veh, GPN3 / RFU, C9orf123 / Fold change vs veh, C9orf123 / RFU, N4BP2L2 / Fold change vs veh, N4BP2L2 / RFU, ARFIP1 / Fold change vs veh, ARFIP1 / RFU, FAM179B / Fold change vs veh, FAM179B / RFU, BCL10 / Fold change vs veh, BCL10 / RFU, UHRF1BP1L / Fold change vs veh, UHRF1BP1L / RFU, BET1 / Fold change vs veh, BET1 / RFU, CNOT2 / Fold change vs veh, CNOT2 / RFU, ZNF268 / Fold change vs veh, ZNF268 / Fold change vs veh, ZNF507 / RFU, DGCR2 / Fold change vs veh, DGCR2 / RFU, WDSUB1 / Fold change vs veh, WDSUB1 / Fold change vs veh, HSP90B1 /// MIR3652 / RFU, ADSS / Fold change vs veh, ADSS / RFU, GK / Fold change vs veh, GK / RFU, ZNF148 / Fold change vs veh, ZNF148 / RFU, TAF9 / Fold change vs veh, TAF9 / RFU, SLC1A5 / Fold change vs veh, SLC1A5 / RFU, SLMO2 / Fold change vs veh, SLMO2 / RFU, ABCC4 / Fold change vs veh, ABCC4 / RFU, LOC101060439 /// RAP1B / Fold change vs veh, LOC101060439 /// RAP1B / RFU, RFX7 / Fold change vs veh, RFX7 / RFU, GTPBP10 / Fold change vs veh, GTPBP10 / RFU, CNEP1R1 / Fold change vs veh, CNEP1R1 / RFU, BIVM-ERCC5 /// ERCC5 / Fold change vs veh, BIVM-ERCC5 /// ERCC5 / RFU, ILF3 / Fold change vs veh, ILF3 / RFU 11762660_at / Fold change /veh 11762660_at / RFU VCAN (11757783_s_at) / Fold change /veh VCAN (11757783_s_at) / RFU DDX43 (11728927_at) / Fold change /veh DDX43 (11728927_at) / RFU KRT8 (11758188_x_at) / Fold change /veh KRT8 (11758188_x_at) / RFU NKD1 (11759106_at) / Fold change /veh NKD1 (11759106_at) / RFU SRD5A1 (11742802_a_at) / Fold change /veh SRD5A1 (11742802_a_at) / RFU TPSAB1 /// TPSB2 (11721975_s_at) / Fold change /veh TPSAB1 /// TPSB2 (11721975_s_at) / RFU GSTM3 (11746129_a_at) / Fold change /veh GSTM3 (11746129_a_at) / RFU IL23R (11737362_x_at) / Fold change /veh IL23R (11737362_x_at) / RFU TMEM51 (11727254_a_at) / Fold change /veh TMEM51 (11727254_a_at) / RFU PIWIL2 (11732686_x_at) / Fold change /veh PIWIL2 (11732686_x_at) / RFU ORM1 (11744905_x_at) / Fold change /veh ORM1 (11744905_x_at) / RFU CCDC152 (11743942_at) / Fold change /veh CCDC152 (11743942_at) / RFU ECM1 (11717891_a_at) / Fold change /veh ECM1 (11717891_a_at) / RFU IL23R (11748794_a_at) / Fold change /veh IL23R (11748794_a_at) / RFU TNFAIP8L3 (11732012_x_at) / Fold change /veh TNFAIP8L3 (11732012_x_at) / RFU MBOAT4 (11741988_at) / Fold change /veh MBOAT4 (11741988_at) / RFU 11764193_at / Fold change /veh 11764193_at / RFU TMEM53 (11763286_at) / Fold change /veh TMEM53 (11763286_at) / RFU MAGEB2 (11727129_at) / Fold change /veh MAGEB2 (11727129_at) / RFU TMEM200A (11744735_a_at) / Fold change /veh TMEM200A (11744735_a_at) / RFU CCDC152 (11751479_a_at) / Fold change /veh CCDC152 (11751479_a_at) / RFU FAM211A (11726209_a_at) / Fold change /veh FAM211A (11726209_a_at) / RFU RGS16 (11746705_a_at) / Fold change /veh RGS16 (11746705_a_at) / RFU VCAN (11755009_s_at) / Fold change /veh VCAN (11755009_s_at) / RFU RHOB (11743442_s_at) / Fold change /veh RHOB (11743442_s_at) / RFU RGS16 (11720943_a_at) / Fold change /veh RGS16 (11720943_a_at) / RFU RGS16 (11720944_at) / Fold change /veh RGS16 (11720944_at) / RFU, VPS4B / Fold change vs veh, VPS4B / RFU, CREB1 / Fold change vs veh, CREB1 / RFU, DNAJC13 / Fold change vs veh, DNAJC13 / RFU, GNAQ / Fold change vs veh, GNAQ / RFU, CDK5R1 / Fold change vs veh, CDK5R1 / RFU, ZRANB3 / Fold change vs veh, ZRANB3 / RFU, CUL4A / Fold change vs veh, CUL4A / RFU, CCNY / Fold change vs veh, CCNY / RFU, UFL1 / Fold change vs veh, UFL1 / RFU, COG3 / Fold change vs veh, COG3 / RFU, DIAPH2 / Fold change vs veh, DIAPH2 / RFU, SKA2 / Fold change vs veh, SKA2 / RFU, AFF3 / Fold change vs veh, AFF3 / RFU, LMF1 / Fold change vs veh, LMF1 / RFU, IPO11 / Fold change vs veh, IPO11 / RFU, DFFB / Fold change vs veh, DFFB / RFU, FOXP1 / Fold change vs veh, FOXP1 / RFU, CARD8 / Fold change vs veh, CARD8 / RFU, STRN3 / Fold change vs veh, STRN3 / RFU, ADK / Fold change vs veh, ADK / RFU, RASSF2 / Fold change vs veh, RASSF2 / RFU, WIPF1 / Fold change vs veh, WIPF1 / RFU, LARP1B / Fold change vs veh, LARP1B / RFU, RASA1 / Fold change vs veh, RASA1 / RFU, RB1 / Fold change vs veh, RB1 / RFU, PPFIA1 / Fold change vs veh, PPFIA1 / RFU, MAT2A / Fold change vs veh, MAT2A / RFU, CCT5 / Fold change vs veh, CCT5 / RFU, WDR92 / Fold change vs veh, WDR92 / RFU, CUX1 / Fold change vs veh, CUX1 / RFU, TTC7A / Fold change vs veh, TTC7A / RFU, TMEM135 / Fold change vs veh, TMEM135 / RFU, DEPTOR / Fold change vs veh, DEPTOR / RFU, CPM / Fold change vs veh, CPM / RFU, DNAJB6 / Fold change vs veh, DNAJB6 / RFU, CACNA2D3 / Fold change vs veh, CACNA2D3 / RFU, DTX4 / Fold change vs veh, DTX4 / RFU, TFCP2 / Fold change vs veh, TFCP2 / RFU, GMCL1 /// GMCL1P1 / Fold change vs veh, GMCL1 /// GMCL1P1 / RFU, AEBP2 / Fold change vs veh, AEBP2 / RFU, SNHG1 /// SNORD22 /// SNORD25 /// SNORD26 /// SNORD27 /// SNORD28 /// SNORD29 /// SNORD31 / Fold change vs veh, SNHG1 /// SNORD22 /// SNORD25 /// SNORD26 /// SNORD27 /// SNORD28 /// SNORD29 /// SNORD31 / Fold change (Aza/veh), C12orf56 (ProbeSet 11735607_a_at) / Fold change (ACY-1035/veh), C12orf56 (ProbeSet 11735607_a_at) / Fold change (Aza/veh), FGFR1OP (ProbeSet 11751329_s_at) / Fold change (ACY-1035/veh), FGFR1OP (ProbeSet 11751329_s_at) / Fold change (Aza/veh), VPS36 (ProbeSet 11739960_a_at) / Fold change (ACY-1035/veh), VPS36 (ProbeSet 11739960_a_at) / RFU SYPL1 (11715823_x_at) / Fold change /veh SYPL1 (11715823_x_at) / RFU IGFBP7 (11715501_s_at) / Fold change /veh IGFBP7 (11715501_s_at) / RFU REEP3 (11722064_at) / Fold change /veh REEP3 (11722064_at) / RFU IGLL1 (11728026_x_at) / Fold change /veh IGLL1 (11728026_x_at): dose or concentration left out as unconfirmed
Details: ProbeSet 11734782_x_at; LIST D

## Nc1ccc(-c2cccs2)cc1NC(=O)c1ccc2c(c1)cc(C1CC1)n2CCN1CCOCC1 [ACY-1035]
  RFU, WDR92: 63.28 RFU
